Laboratory results published in PubChem BioAssay AID1963872 (Molecular Pharmacology Branch, DTP, NCI, 2024).

System: KRAS patient-derived spheroids with HUVEC/MSC, viability
Assay: Anticancer human tumor 519858-162-T-J1-PDC patient-derived colon adenocarcinoma cell line growth inhibition [KRAS2]
Conditions: for IC50: curve of first compound; for viability, T/C: stronger effect = lower value
Summary of the method: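 Combination screen of spheroid viability in tumor-cell co-cultures with endothelial (HUVEC) and mesenchymal stem cell stroma. Each agent was tested in half-log dilutions, topping at clinical Cmax or at 10 microM without a known Cmax.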

[1] = second compound 0.1 µM, first compound 0.0316 µM
[2] = second compound 0.1 µM, first compound 0.1 µM
[3] = second compound 0.1 µM, first compound 0.316 µM
[4] = second compound 0.1 µM, first compound 1 µM
[5] = second compound 0.1 µM, first compound 3.16 µM
[6] = second compound 0.1 µM, first compound 10 µM
[7] = second compound 0.316 µM, first compound 0.0316 µM
[8] = second compound 0.316 µM, first compound 0.1 µM
[9] = second compound 0.316 µM, first compound 0.316 µM
[10] = second compound 0.316 µM, first compound 1 µM
[11] = second compound 0.316 µM, first compound 3.16 µM
[12] = second compound 0.316 µM, first compound 10 µM
[13] = second compound 1 µM, first compound 0.0316 µM
[14] = second compound 1 µM, first compound 0.1 µM
[15] = second compound 1 µM, first compound 0.316 µM
[16] = second compound 1 µM, first compound 1 µM
[17] = second compound 1 µM, first compound 3.16 µM
[18] = second compound 1 µM, first compound 10 µM
[19] = second compound 3.16 µM, first compound 0.0316 µM
[20] = second compound 3.16 µM, first compound 0.1 µM
[21] = second compound 3.16 µM, first compound 0.316 µM
[22] = second compound 3.16 µM, first compound 1 µM
[23] = second compound 3.16 µM, first compound 3.16 µM
[24] = second compound 3.16 µM, first compound 10 µM
[25] = second compound 10 µM, first compound 0.0316 µM
[26] = second compound 10 µM, first compound 0.1 µM
[27] = second compound 10 µM, first compound 0.316 µM
[28] = second compound 10 µM, first compound 1 µM
[29] = second compound 10 µM, first compound 3.16 µM
[30] = second compound 10 µM, first compound 10 µM
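Note: compound exposure lasted seven days before readout.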
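Throughout, for viability, T/C: 100% = DMSO vehicle control viability.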

SMILES | IC50 (second compound 0.1 µM) | IC50 (second compound 0.316 µM) | IC50 (second compound 1 µM) | IC50 (second compound 3.16 µM) | viability, T/C [1] | viability, T/C [2] | viability, T/C [3] | viability, T/C [4] | viability, T/C [5] | viability, T/C [7] | viability, T/C [8] | viability, T/C [9] | viability, T/C [10] | viability, T/C [11] | viability, T/C [13] | viability, T/C [14] | viability, T/C [15] | viability, T/C [16] | viability, T/C [17] | viability, T/C [19] | further results
CCNC(=O)CC1N=C(c2ccc(Cl)cc2)c2cc(OC)ccc2-n2c(C)nnc21 (stereo not given) + COc1cc2nc(C)nc(NC(C)c3cc(N)cc(C(F)(F)F)c3)c2cc1OC1CCOC1 | 1410 nM | 656 nM | 531 nM | 367 nM | 82.4% | 90.9% | 86.2% | 67.9% | 7.95% | 78.8% | 125% | 78.3% | 33.1% | 8.12% | 71.1% | 58.3% | 66.2% | 31.5% | 5.67% | 70% | IC50 (second compound 10 µM): 106 nM; viability, T/C [6]: 5.72%; viability, T/C [12]: 9.79%; viability, T/C [18]: 7.44%; viability, T/C [20]: 90.5%; viability, T/C [21]: 55.4%; viability, T/C [22]: 13.8%; viability, T/C [23]: 6.83%; viability, T/C [24]: 9.55%; viability, T/C [25]: 58%; viability, T/C [26]: 48%; viability, T/C [27]: 33%; viability, T/C [28]: 7.95%; viability, T/C [29]: 6.57%; viability, T/C [30]: 5.25%
O=C(c1cc(Cc2n[nH]c(=O)c3ccccc23)ccc1F)N1CCN(C(=O)C2CC2)CC1 + C=CC(=O)N1CCN(c2nc(OCC3CCCN3C)nc3c2CCN(c2cccc4cccc(C)c24)C3)CC1CC#N | > 10000 nM | > 10000 nM | > 10000 nM | > 10000 nM | 72.9% | 115% | 102% | 101% | 102% | 70.3% | 94.5% | 83.7% | 84.5% | 85.4% | 91.2% | 71.3% | 112% | 97.5% | 86.9% | 79.2% | IC50 (second compound 0.0316 µM): > 10000 nM; viability, T/C (second compound 0.0316 µM, first compound 0.0316 µM): 82.5%; viability, T/C (second compound 0.0316 µM, first compound 0.1 µM): 90.2%; viability, T/C (second compound 0.0316 µM, first compound 0.316 µM): 80.3%; viability, T/C (second compound 0.0316 µM, first compound 1 µM): 86.8%; viability, T/C (second compound 0.0316 µM, first compound 3.16 µM): 71.2%; viability, T/C (second compound 0.0316 µM, first compound 10 µM): 93.3%; viability, T/C [6]: 101%; viability, T/C [12]: 98.7%; viability, T/C [18]: 96.9%; viability, T/C [20]: 69.4%; viability, T/C [21]: 60.8%; viability, T/C [22]: 85.6%; viability, T/C [23]: 98%; viability, T/C [24]: 80.2%
COC(=O)c1ccc2c(C(=Nc3ccc(N(C)C(=O)CN4CCN(C)CC4)cc3)c3ccccc3)c(O)[nH]c2c1 + CC1OCC2(CCN(c3cnc(Sc4ccnc(N)c4Cl)c(N)n3)CC2)C1N | > 10000 nM | > 10000 nM | > 10000 nM | > 10000 nM | 66% | 80% | 63.4% | 66% | 99.7% | 72.7% | 67.5% | 86.5% | 64.1% | 67% | 75.4% | 75% | 56.9% | 70.7% | 64.6% | 47.9% | IC50 (second compound 10 µM): > 10000 nM; viability, T/C [6]: 74.6%; viability, T/C [12]: 98.8%; viability, T/C [18]: 84%; viability, T/C [20]: 60.9%; viability, T/C [21]: 72.7%; viability, T/C [22]: 52.6%; viability, T/C [23]: 67.4%; viability, T/C [24]: 83.2%; viability, T/C [25]: 49.9%; viability, T/C [26]: 58%; viability, T/C [27]: 64.7%; viability, T/C [28]: 69.2%; viability, T/C [29]: 75.3%; viability, T/C [30]: 88.3%
CC1COCCN1c1cc(-c2ccnn2C)c2ccnc(-c3ccn[nH]3)c2n1 (stereo not given) + CC1OCC2(CCN(c3cnc(Sc4ccnc(N)c4Cl)c(N)n3)CC2)C1N | 2480 nM | 2280 nM | 2100 nM | > 3160 nM | 89.2% | 72.5% | 88.4% | 90.1% | 40% | 75.6% | 87.3% | 80.4% | 77.7% | 39.1% | 75.3% | 82.2% | 75.8% | 67.3% | 41.1% | 83.9% | IC50 (second compound 10 µM): > 3160 nM; viability, T/C (second compound 0.1 µM, first compound 0.01 µM): 97.8%; viability, T/C (second compound 0.316 µM, first compound 0.01 µM): 87%; viability, T/C (second compound 1 µM, first compound 0.01 µM): 95.4%; viability, T/C (second compound 3.16 µM, first compound 0.01 µM): 83.4%; viability, T/C [20]: 65.8%; viability, T/C [21]: 70.4%; viability, T/C [22]: 60.6%; viability, T/C [23]: 53.9%; viability, T/C (second compound 10 µM, first compound 0.01 µM): 81.7%; viability, T/C [25]: 74.2%; viability, T/C [26]: 61.6%; viability, T/C [27]: 47.7%; viability, T/C [28]: 51%; viability, T/C [29]: 53.3%
